Read-outs that look alike come from different tables or passages of the source.
Columns and labels:
Assay type in all cases: cell-based
[1] = system: SK-MEL-28; experiment: SRB colorimetric cell growth inhibition assay, SK-MEL-28; settings: Homo sapiens, SK-MEL-28, MEL-28; for GI50: GI=growth inhibition, read-out: GI50 MEL-28; for CC50: cell killing (cytotoxic effect), read-out: LC50 MEL-28; for IC (TGI): total growth inhibition (cytostatic effect), read-out: TGI MEL-28
Outline: (§1)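 Read-out: sulforhodamine B colorimetry of surviving cell mass after continued exposure of human tumour lines to sample. Values are means ± SD of three wells, expressed as GI, TGI or LC.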

[2] = system: IGROV-ET; experiment: SRB colorimetric cell growth inhibition assay, IGROV-ET (ET-743 resistant); settings: Homo sapiens, IGROV-ET; for GI50: GI=growth inhibition, read-out: GI50 IGROV-ET; for CC50: cell killing (cytotoxic effect), read-out: LC50 IGROV-ET; for IC (TGI): total growth inhibition (cytostatic effect), read-out: TGI IGROV-ET
Outline: as §1

[3] = system: DU-145; experiment: SRB colorimetric cell growth inhibition assay, DU-145; settings: Homo sapiens; for CC50: cell killing (cytotoxic effect), read-out: LC50 DU-145; for GI50: GI=growth inhibition, read-out: GI50 DU-145; for IC (TGI): total growth inhibition (cytostatic effect), read-out: TGI DU-145
Outline: as §1

[4] = system: HT-29; experiment: SRB colorimetric cell growth inhibition assay, HT-29; settings: Homo sapiens; for CC50: LC=cell killing (cytotoxic effect), read-out: LC50 HT-29; for GI50: GI=growth inhibition, read-out: GI50 HT-29; for IC (TGI): TGI=total growth inhibition (cytostatic effect), read-out: TGI HT-29
Outline: as §1

[5] = system: PANC-1; experiment: SRB colorimetric cell growth inhibition assay, PANC-1; settings: Homo sapiens; for CC50: LC=cell killing (cytotoxic effect), read-out: LC50 PANC-1; for IC (TGI): TGI=total growth inhibition (cytostatic effect), read-out: TGI PANC-1; for GI50: GI=growth inhibition, read-out: GI50 PANC-1
Outline: as §1

[6] = system: IGROV; experiment: SRB colorimetric cell growth inhibition assay, IGROV
Outline: as §1

[7] = system: LoVo-Dox; experiment: SRB colorimetric cell growth inhibition assay, LoVo-Dox (MDR)
Outline: as §1

[8] = system: LNCaP; experiment: SRB colorimetric cell growth inhibition assay, LNCaP; settings: Homo sapiens, LNCaP, LN-caP; for GI50: GI=growth inhibition, read-out: GI50 LN-caP; for CC50: cell killing (cytotoxic effect), read-out: LC50 LN-caP; for IC (TGI): total growth inhibition (cytostatic effect), read-out: TGI LN-caP
Outline: as §1

[9] = system: A-549; experiment: SRB colorimetric cell growth inhibition assay, A-549; settings: Homo sapiens, A549, A-549; for GI50: GI=growth inhibition, read-out: GI50 A-549; for CC50: LC=cell killing (cytotoxic effect), read-out: LC50 A-549; for IC (TGI): TGI=total growth inhibition (cytostatic effect), read-out: TGI A-549
Outline: as §1

[10] = system: K-562; experiment: SRB colorimetric cell growth inhibition assay, K-562; settings: Homo sapiens, K562, K-562; for GI50: GI=growth inhibition, read-out: GI50 K-562; for CC50: LC=cell killing (cytotoxic effect), read-out: LC50 K-562; for IC (TGI): TGI=total growth inhibition (cytostatic effect), read-out: TGI K-562
Outline: as §1

[11] = system: SK-BR-3; experiment: SRB colorimetric cell growth inhibition assay, SK-BR-3; settings: Homo sapiens; for CC50: cell killing (cytotoxic effect), read-out: LC50 SK-BR-3; for GI50: GI=growth inhibition, read-out: GI50 SK-BR-3; for IC (TGI): total growth inhibition (cytostatic effect), read-out: TGI SK-BR-3
Outline: as §1

[12] = system: SKOV-3; experiment: SRB colorimetric cell growth inhibition assay, SKOV-3; settings: Homo sapiens; for GI50: SK-OV-3, SKOV-3, GI=growth inhibition, read-out: GI50 SKOV-3; for LC50 (concentration causing 50% net cell killing) / IC (TGI): SK-OV-3, SKOV-3; for LC50 (concentration causing 50% net cell killing): cell killing (cytotoxic effect), read-out: LC50 SKOV-3; for IC (TGI): total growth inhibition (cytostatic effect), read-out: TGI SKOV-3
Outline: (§2)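 Growth inhibition (GI), total growth inhibition (TGI, cytostatic) and lethal concentration (LC, cytotoxic) come from an SRB-based colorimetric measure of growth and viability. Data are triplicate-well means ± SD.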

[13] = system: LoVo; experiment: SRB colorimetric cell growth inhibition assay, LoVo; settings: Homo sapiens; for CC50: LC=cell killing (cytotoxic effect), read-out: LC50 LOVO; for GI50: GI=growth inhibition, read-out: GI50 LOVO; for IC (TGI): TGI=total growth inhibition (cytostatic effect), read-out: TGI LOVO
Outline: as §1

[14] = SRB colorimetric cell growth inhibition assay, H-MEC-1; settings: human, H-MEC-1, cell killing (cytotoxic effect), read-out: LC50 H-MEC-1
Outline: as §2

[15] = system: H-MEC-1; experiment: as above; settings: Homo sapiens, HMEC-1, H-MEC-1; for GI50: GI=growth inhibition, read-out: GI50 H-MEC-1; for IC (TGI): total growth inhibition (cytostatic effect), read-out: TGI H-MEC-1
Outline: as §2

[16] = Homo sapiens, IGROV; cell killing (cytotoxic effect); read-out: LC50 IGROV
[17] = Homo sapiens, LOVO-DOX; GI=growth inhibition; read-out: GI50 LOVO-DOX
[18] = Homo sapiens, LOVO-DOX; LC=cell killing (cytotoxic effect); read-out: LC50 LOVO-DOX

COc1cc(-c2c3n(c4c(=O)oc5cc(OC(=O)[C@H](Cc6c[nH]c7ccccc67)NC(=O)OC(C)(C)C)c(OC)cc5c24)CCc2cc(OC(=O)[C@H](Cc4c[nH]c5ccccc45)NC(=O)OC(C)(C)C)c(OC)cc2-3)ccc1OC(=O)[C@H](Cc1c[nH]c2ccccc12)NC(=O)OC(C)(C)C [Compound 29]
GI50 [1]: 1.55 µM | CC50 [1]: 6.45 µM | IC (TGI) [1]: 3.17 µM | GI50 [2]: 5.65 µM | CC50 [2]: 7.35 µM | IC (TGI) [2]: 7.35 µM | CC50 ([3]; DU-145, DU-145): 3.9 µM | GI50 ([3]; DU-145): 0.198 µM | IC (TGI) ([3]; DU-145): 0.44 µM | CC50 ([4]; HT-29, HT-29): 7.35 µM | GI50 ([4]; HT-29): 1.84 µM | IC (TGI) ([4]; HT-29): 5.08 µM | CC50 ([5]; PANC-1, PANC-1): 7.35 µM | IC (TGI) ([5]; PANC-1, PANC-1): 4.23 µM | GI50 ([5]; PANC-1): 0.978 µM | CC50 [6, 16]: 7.35 µM | GI50 ([6]; Homo sapiens; IGROV; GI=growth inhibition; read-out: GI50 IGROV): 0.367 µM | IC (TGI) ([6]; Homo sapiens; IGROV; total growth inhibition (cytostatic effect); read-out: TGI IGROV): 1.66 µM | GI50 [7, 17]: 7.35 µM | CC50 [7, 18]: 7.35 µM | IC (TGI) ([7]; Homo sapiens; LOVO-DOX; TGI=total growth inhibition (cytostatic effect); read-out: TGI LOVO-DOX): 7.35 µM | GI50 [8]: 0.0704 µM | CC50 [8]: 0.396 µM | IC (TGI) [8]: 0.169 µM | GI50 [9]: 1.73 µM | CC50 [9]: 7.35 µM | IC (TGI) [9]: 3.63 µM | GI50 [10]: 0.481 µM | CC50 [10]: 7.35 µM | IC (TGI) [10]: 3.46 µM | CC50 ([11]; SK-BR-3, SK-BR-3): 7.03 µM | GI50 ([11]; SK-BR-3): 0.242 µM | IC (TGI) ([11]; SK-BR-3): 0.525 µM | GI50 [12]: 1.79 µM | LC50 (concentration causing 50% net cell killing) [12]: 7.35 µM | IC (TGI) [12]: 3.9 µM | CC50 ([13]; LoVo): 7.35 µM | GI50 ([13]; LOVO): 2.91 µM | IC (TGI) ([13]; LOVO): 7.35 µM | LC50 (concentration giving 50% net cell killing) [14]: 0.29 µM | GI50 [15]: 0.0242 µM | IC (TGI) [15]: 0.0526 µM

COc1cc(-c2c3c4cc(OC)c(OC(=O)[C@@H]5CCCN5)cc4oc(=O)c3n3ccc4c(OC(=O)[C@@H]5CCCN5)c(OC)c(OC)cc4c23)ccc1OC(=O)[C@@H]1CCCN1 [Compound 30]
GI50 [1]: 0.251 µM | CC50 [1]: 4.42 µM | IC (TGI) [1]: 1.08 µM | GI50 [2]: 0.45 µM | CC50 [2]: 6.63 µM | IC (TGI) [2]: 1.83 µM | GI50 ([3]; DU-145, DU-145): 0.0538 µM | CC50 ([3]; DU-145, DU-145): 3.84 µM | IC (TGI) ([3]; DU-145, DU-145): 0.265 µM | GI50 ([4]; HT-29, HT-29): 2.81 µM | CC50 ([4]; HT-29, HT-29): 8.6 µM | IC (TGI) ([4]; HT-29, HT-29): 5.06 µM | GI50 ([5]; PANC-1, PANC-1): 0.805 µM | CC50 ([5]; PANC-1, PANC-1): 5.64 µM | IC (TGI) ([5]; PANC-1, PANC-1): 2.18 µM | GI50 ([6]; Homo sapiens, IGROV; GI=growth inhibition; read-out: GI50 IGROV): 0.35 µM | CC50 [6, 16]: 6.99 µM | IC (TGI) ([6]; Homo sapiens, IGROV; total growth inhibition (cytostatic effect); read-out: TGI IGROV): 1.47 µM | GI50 [7, 17]: 0.683 µM | CC50 [7, 18]: 5.22 µM | IC (TGI) ([7]; Homo sapiens, LOVO-DOX; TGI=total growth inhibition (cytostatic effect); read-out: TGI LOVO-DOX): 1.93 µM | GI50 [8]: 0.275 µM | CC50 [8]: 4.9 µM | IC (TGI) [8]: 1.27 µM | GI50 [9]: 0.341 µM | CC50 [9]: 6.64 µM | IC (TGI) [9]: 1.27 µM | GI50 [10]: 0.204 µM | CC50 [10]: 8.6 µM | IC (TGI) [10]: 1.1 µM | GI50 ([11]; SK-BR-3, SK-BR-3): 0.498 µM | CC50 ([11]; SK-BR-3, SK-BR-3): 6.39 µM | IC (TGI) ([11]; SK-BR-3, SK-BR-3): 1.61 µM | GI50 [12]: 0.348 µM | LC50 (concentration causing 50% net cell killing) [12]: 5.36 µM | IC (TGI) [12]: 1.24 µM | GI50 ([13]; LoVo): 0.383 µM | CC50 ([13]; LoVo): 3.77 µM | IC (TGI) ([13]; LoVo): 1.06 µM | LC50 (concentration giving 50% net cell killing) ([14]; H-MEC-1 cells): 0.84 µM | GI50 [15]: 0.0705 µM | IC (TGI) [15]: 0.241 µM

From patent publication US7396837B2, “Antitumoral analogs of lamellarins” (Pharma Mar, S.A.U., priority 2002, dated 2008)
